PubChem BioAssay (NCI)
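Interpolation was linear, between the two tested concentrations surrounding the appropriate level; five concentrations were tested over 48 hours in 96-well plates. GI50 = concentration required for 50% inhibition of growth. TGI denotes the concentration required for complete inhibition of growth.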

Experiments:
Experiment in all cases: NCI anticancer screen, dose series, 48 h
EKVX NSCLC = tested on: EKVX NSCLC
786-0 renal = tested on: 786-0 renal
RXF 393 renal = tested on: RXF 393 renal
K-562 leukemia = tested on: K-562 leukemia
MALME-3M melanoma = tested on: MALME-3M melanoma
NCI-H23 lung = tested on: NCI-H23 lung
NCI-H522 lung = tested on: NCI-H522 lung
DU-145 prostate = tested on: DU-145 prostate
SW-620 colon = tested on: SW-620 colon
HS 578T breast = tested on: HS 578T breast

| Compound | GI50 (EKVX NSCLC) | TGI (EKVX NSCLC) | GI50 (786-0 renal) | TGI (786-0 renal) | GI50 (RXF 393 renal) | TGI (RXF 393 renal) | GI50 (K-562 leukemia) | TGI (K-562 leukemia) | GI50 (MALME-3M melanoma) | TGI (MALME-3M melanoma) | GI50 (NCI-H23 lung) | TGI (NCI-H23 lung) | GI50 (NCI-H522 lung) | TGI (NCI-H522 lung) | GI50 (DU-145 prostate) | TGI (DU-145 prostate) | GI50 (SW-620 colon) | TGI (SW-620 colon) | GI50 (HS 578T breast) | TGI (HS 578T breast) |
| --- | --- | --- | --- | --- | --- | --- | --- | --- | --- | --- | --- | --- | --- | --- | --- | --- | --- | --- | --- | --- |
| NCCCC[C@@H]1NC(=O)[C@H]2CCCN2C(=O)[C@H](Cc2ccccc2)CNC(=O)[C@H](Cc2ccccc2)NC1=O | > 37.5 µM | > 37.5 µM | > 37.5 µM | > 37.5 µM | > 37.5 µM | > 37.5 µM | > 17.9 µM | > 37.5 µM | > 37.5 µM | > 37.5 µM | > 37.5 µM | > 37.5 µM | > 37.5 µM | > 37.5 µM | > 37.5 µM | > 37.5 µM | > 37.5 µM | > 37.5 µM | > 37.5 µM | > 37.5 µM |
| COc1ccc2c(c1)c(CC(=O)[Se]C)c(C)n2C(=O)c1ccc(Cl)cc1 | > 0.229 µM | > 0.459 µM | > 0.197 µM | > 0.428 µM | > 0.206 µM | > 0.5 µM | > 0.583 µM | > 1 µM | > 0.346 µM | > 0.582 µM | > 0.376 µM | > 0.894 µM | > 0.371 µM | > 0.677 µM | > 0.423 µM | > 0.807 µM | > 0.468 µM | > 0.854 µM | > 0.297 µM | > 0.942 µM |
| CC1=C(C(=O)Nc2ccc3n[nH]c(C)c3c2)C(c2ccc(C(F)(F)F)cc2)CC(=O)N1 (stereo not given) | 5.89 µM | > 25 µM | > 25 µM | > 25 µM | 6.7 µM | > 25 µM | > 25 µM | > 25 µM | 13.6 µM | > 25 µM | > 17.6 µM | > 25 µM | 9.13 µM | > 21.5 µM | > 25 µM | > 25 µM | 11 µM | > 25 µM | 0.305 µM | 19.5 µM |
| Nc1ncnc2c1N=C(c1ccc3c(c1)OCO3)CC(c1ccc([N+](=O)[O-])cc1)N2 (stereo not given) | 92.6 µM | > 100 µM | 79.1 µM | > 100 µM | 7.19 µM | 63.1 µM | 22.5 µM | > 100 µM | 61.1 µM | > 100 µM | > 100 µM | > 100 µM | 6.78 µM | > 100 µM | 46.3 µM | > 100 µM | 53.2 µM | > 100 µM | 9.18 µM | > 100 µM |
| CN1CCN(C(=O)C(C)(C)c2ccc(C(=O)Nc3cn4cc(-c5ccncc5)ccc4n3)cc2)CC1 | 0.491 µM | > 100 µM | 0.539 µM | > 100 µM | 0.316 µM | 1.01 µM | 0.194 µM | > 100 µM | 0.26 µM | 0.773 µM | 0.307 µM | 19.2 µM | 0.22 µM | 13.4 µM | 0.319 µM | 35.2 µM | 0.185 µM | > 56 µM | 0.327 µM | 3.66 µM |
